Read-outs that look alike come from different tables or passages of the source.
What was measured:
[1] = Acute toxicity in mice (oral or intraperitoneal single dose); conditions: mouse, in vivo, observed at least one week
Description: Each compound was administered orally or intraperitoneally as a single dose.

cardiovascular system = experiment: Effects on the cardiovascular system in dogs; format: in vivo; conditions: intravenous, 0.1 mg/kg to 10 mg/kg
Description: The compounds of the formula (I) were administered intravenously in dogs, at dosages from 0.1 mg/kg to 10 mg/kg. The changes of blood pressure, of the femoral arterial rate, of vascular resistance subsequent to said injections were recorded.

[2] = test system: palpebral ptosis induced by a reserpine injection; experiment: Antidepressant activity: antagonism of palpebral ptosis induced by reserpine injection; format: in vivo; conditions: Mus musculus; mice, oral, one hour prior to reserpine 2 mg/kg ip; recorded hourly for 3 hours (Rubin's scale); read-out: ptosis reserpine ED50 (dosage which inhibits palpebral ptosis by 50%)
Description: The antidepressant activity of each compound was evaluated in mice from its ability to antagonize palpebral ptosis induced by a reserpine injection. The different materials were administered orally, as a preventive treatment, one hour prior to intraperitoneal injection of reserpine (2 mg/kg). The intensity of the palpebral ptosis was then recorded at hourly intervals, for a period of time of 3 hours, according to a semi-quantitative scale (Rubin's scale). The test materials were administered at several dosage levels and, for most of them, the 50% efficient dosage (ED50) which inhibits palpebral ptosis by a factor of 50% could be evaluated.

[3] = test system: peripheral and central cholinergic effects of oxotremorine; experiment: Atropine activity: effect on peripheral and central cholinergic effects of oxotremorine; format: in vivo; conditions: 100 mg/kg oral, 60 minutes prior to subcutaneous oxotremorine 2 mg/kg
Description: In view of the detrimental atropine-like side-effect of the conventional antidepressants, this potential property was systematically investigated in the compounds of the formula (I).
The different materials were administered orally 60 minutes prior to subcutaneous oxotremorine injection at a dosage of 2 mg/kg.
15 minutes, and then 30 and 45 minutes after injection of the cholinergic agent, the various symptoms reflecting a parasympathetic stimulation were evaluated according to a semi-quantitative arbitrary scale (from 0 to 4).
peripheral cholinergic stimulation symptoms: tearfulness, salivation;
central cholinergic stimulation: trembling, Straub's phenomenon.

[4] = ip, intraperitoneal, read-out: LD50 ip

SMILES: CCOC(=O)CC1N=C2CC(c3ccccc3)CN2C1=O (stereo not shown) [Example 6]
- LD50 [1, 4]: > 200 mg/kg
- LD50 ([1]; oral, read-out: LD50 po): > 200 mg/kg
- action on the blood pressure (cardiovascular system): slight hypotensive action
- ED50 [2]: ~100 mg/kg

SMILES: O=C1CCCN=C2CC(c3ccccc3)CN12 (stereo not shown) [Example 18]
- LD50 [1, 4]: > 200 mg/kg
- LD50 ([1]; oral, read-out: LD50 po): > 200 mg/kg
- ED50 [2]: < 33 mg/kg

SMILES: O=C1CCN=C2CC(c3cc4ccccc4o3)CN12 (stereo not shown) [Example 15]
- LD50 [1, 4]: > 200 mg/kg
- LD50 ([1]; oral, read-out: LD50 po): > 200 mg/kg
- ED50 [2]: ~33 mg/kg

SMILES: CSCCC1N=C2CC(c3ccccc3)CN2C1=O (stereo not shown) [Example 8]
- LD50 [1, 4]: > 200 mg/kg
- LD50 ([1]; oral, read-out: LD50 po): > 200 mg/kg
- action on the blood pressure (cardiovascular system): slight hypotensive action
- ED50 [2]: ~30 mg/kg

SMILES: O=C1CCN=C2CC(c3ccccc3)CN12 (stereo not shown) [Example 14]
- LD50 [1, 4]: > 200 mg/kg
- LD50 ([1]; oral, read-out: LD50 po): > 200 mg/kg
- ED50 [2]: 5 mg/kg

SMILES: CCOC(=O)CCC1N=C2CCC(c3ccccc3)CN2C1=O (stereo not shown) [Example 13]
- LD50 [1, 4]: > 200 mg/kg
- LD50 ([1]; oral, read-out: LD50 po): > 200 mg/kg
- ED50 [2]: ~30 mg/kg

SMILES: CC(C)C1N=C2CCC(c3ccccc3)CN2C1=O (racemic) [Example 10]
- LD50 [1, 4]: > 200 mg/kg
- LD50 ([1]; oral, read-out: LD50 po): > 200 mg/kg
- inhibitor activity on cholinergic effects of oxotremorine [3]: slight inhibitor activity
- ED50 [2]: ~100 mg/kg

SMILES: CC(C)C1N=C2CC(c3ccccc3)CN2C1=O (racemic) [Example 2]
- LD50 [1, 4]: > 200 mg/kg
- LD50 ([1]; oral, read-out: LD50 po): > 200 mg/kg
- ED50 [2]: > 30 mg/kg

SMILES: CCOC(=O)C1N=C2CCC(c3ccccc3)CN2C1=O (stereo not shown) [Example 12]
- LD50 [1, 4]: > 200 mg/kg
- LD50 ([1]; oral, read-out: LD50 po): > 200 mg/kg
- ED50 [2]: ~30 mg/kg

SMILES: O=C1CCN=C2CCC(c3ccccc3)N12 (stereo not shown) [Example 17]
- LD50 [1, 4]: > 200 mg/kg
- LD50 ([1]; oral, read-out: LD50 po): > 200 mg/kg
- ED50 [2]: < 100 mg/kg

SMILES: O=C1C(Cc2ccccc2)N=C2CC(c3ccccc3)CN12 (stereo not shown) [Example 4]
- LD50 [1, 4]: < 200 mg/kg
- LD50 ([1]; oral, read-out: LD50 po): > 200 mg/kg
- ED50 [2]: < 30 mg/kg

SMILES: CCOC(=O)CCC1N=C2CC(c3ccccc3)CN2C1=O (stereo not shown) [Example 7]
- LD50 [1, 4]: > 200 mg/kg
- LD50 ([1]; oral, read-out: LD50 po): > 200 mg/kg
- ED50 [2]: ~30 mg/kg

SMILES: CC1N=C2CC(c3ccccc3)CN2C1=O (racemic) [Example 1]
- LD50 [1, 4]: > 200 mg/kg
- LD50 ([1]; oral, read-out: LD50 po): > 200 mg/kg
- ED50 [2]: ~33 mg/kg

SMILES: CCOC(=O)C1N=C2CC(c3ccccc3)CN2C1=O (stereo not shown) [Example 5]
- LD50 [1, 4]: > 200 mg/kg
- LD50 ([1]; oral, read-out: LD50 po): > 200 mg/kg
- vasoconstrictive action (cardiovascular system): slightly vasoconstrictive
- ED50 [2]: ~7 mg/kg

SMILES: O=C1C(c2ccccc2)N=C2CC(c3ccccc3)CN12 (racemic) [Example 3]
- LD50 [1, 4]: > 200 mg/kg
- LD50 ([1]; oral, read-out: LD50 po): > 200 mg/kg
- ED50 [2]: ~30 mg/kg

— patent US4325954A, “Pyrrolopyrimidinones and pyrroloimidazolones and their compositions and therapeutic methods” (Laboratoires Jacques Logeais, priority 1979, dated 1982)
